{"source": "patent US7884090B2", "about": "“Compositions and methods for the treatment of arthritis” (priority 1999, dated 2011)", "origin": "cited, not measured here", "key": {"[1]": {"test_system": "Staph haemolyticus, Staph hominis, Acinetobacter Iwoffi and further listed species up to Yersinia enterocolitica", "conditions": "in vitro"}, "[2]": {"test_system": "pseudomonas aeruginosa, methicillin-resistant strains of Staph. aureus and Proteus"}}, "data": [{"smiles": "O=C(O)c1cn(C2CC2)c2cc(N3CCNCC3)c(F)cc2c1=O", "note": "[cipro, ciprofloxacin]", "values": [{"measurement": "Strains against which effective", "setting": "[1]", "value": 90, "unit": "%"}]}, {"smiles": "CCN[C@@H]1C[C@H](N)[C@@H](O[C@H]2OC(CN)=CC[C@H]2N)[C@H](O)[C@H]1O[C@H]1OC[C@](C)(O)[C@H](NC)[C@H]1O", "note": "[netilmicin]", "values": [{"measurement": "Strains against which active", "setting": "[2]", "value": 85, "unit": "%"}]}]}
